As usually defined, the IC50 is the concentration that gives 50% inhibition.

In test [1] the test system is SK-OV-3. The experiment in a line: Antitumor activity against human SK-OV-3 cells assessed as reduction in cell viability incubated for 72 hrs by CCK8 assay. It counts as functional, cell-based. Conditions: SK-OV-3, 72 h. (In general: Tetrazolium assays rely on reduction of a dye to a coloured formazan, in cell work by metabolically active cells.)
A further test concerns MDA-MB-231. The experiment in a line: Antitumor activity against human MDA-MB-231 cells assessed as reduction in cell viability incubated for 72 hrs by CCK8 assay. Conditions: MDA-MB-231, 72 h.
For the next test, the system named is MCF7. Nature of the test: Antitumor activity against human MCF7 cells assessed as reduction in cell viability incubated for 72 hrs by CCK8 assay. It counts as functional, cell-based. To be noted: MCF7, 72 h.
The next test relates to A549. Nature of the test: Antitumor activity against human A549 cells assessed as reduction in cell viability incubated for 72 hrs by CCK8 assay. It counts as functional, cell-based. To be noted: A549, 72 h.
In test [2] the target is T1, Tubulin (Homo sapiens) (UniProt P68371+Q9H4B7+P0DPH7+P68366+Q13509+Q71U36+P04350+Q3ZCM7+P07437+P68363+Q9BQE3+Q6PEY2+Q13885+Q9BVA1+Q9BUF5). Nature of the test: Inhibition of tubulin polymerization (unknown origin) assessed as increase in optical density at 340 nm at 10 uM. It counts as protein-complex assay.
Test [3] deals with T1, Tubulin (Homo sapiens). The experiment in a line: Inhibition of tubulin polymerization in human SK-OV-3 cells at 20 nM incubated for 18 hrs by Alexa Fluor 488 staining based confocal immunofluorescent microscopic analysis. It counts as cell-based.
Test [4] deals with SK-OV-3. Nature of the test: Antitumor activity against human SK-OV-3 cells xenografted in female BALB/c nude mouse assessed as tumor growth inhibition at 10 mg/kg, […] via tail vein once every 2 to 3 days. To be noted: time 2-3 day, read-out: TGI. It counts as functional. (A xenograft is tissue or cells of one species grown in another, often human tumour cells in immunodeficient mice.)

The source made the active and inactive calls. The calls are words filed in the database; no cut-off is given here. A value given as a limit tells only on which side of the number the result lay.

Regarding `COc1ccc2c(c1)CCCN2c1nc(NC2CCCC2)nc2ccc(F)cc12`, the IC50 with SK-OV-3 [1], in the test with MDA-MB-231, in the test with MCF7 and in the test with A549 was over 1000 nM in each case.
Take `COc1ccc2c(c1)CCCN2c1nc(NCCCO)nc2ccc(F)cc12`: the IC50 turned out to be 5.7 nM in the test on SK-OV-3 [1], 9.3 nM in the test with MDA-MB-231, 6 nM in the test with MCF7 and 12.7 nM in the test on A549.
For `COc1ccc2c(c1)CCCN2c1nc(Cl)nc2ccc(I)cc12`, the IC50 in the test with SK-OV-3 [1] came to 160 nM; with MDA-MB-231 it was 327 nM; with MCF7 it was 547 nM; in the test with A549, 315 nM.
For the molecule `COc1ccc2c(c1)CCCN2c1nc(N)nc2ccc(F)cc12`, the IC50 with SK-OV-3 [1] worked out at 4.4 nM; in the test on MDA-MB-231 it was 7.1 nM; in the test on MCF7 it was 6 nM; in the test on A549, 7.2 nM.
The matching figures for `COc1ccc2c(c1)CCCN2c1nc(Cl)nc2ccc(OC(F)(F)F)cc12`: over 1000 nM, over 1000 nM, over 1000 nM and over 1000 nM.
Take `COc1ccc2c(c1)CCCN2c1nc(N2CCCCC2)nc2ccc(F)cc12`: the IC50 in the test with SK-OV-3 [1], in the test with MDA-MB-231, in the test with MCF7 and in the test with A549 was over 1000 nM in each case.
For the molecule `COc1ccc2c(c1)CCCN2c1nc(N2CCN(C)CC2)nc2ccc(F)cc12`, the IC50 with SK-OV-3 [1], with MDA-MB-231, in the test on MCF7 and in the test on A549 was over 1000 nM in each case.
Consider `COc1ccc2c(c1)CCCN2c1nc(Cl)nc2ccc(OC)cc12`, for which the 50% inhibitory concentration (IC50) in the test on SK-OV-3 [1] was determined as 58 nM; in the test on MDA-MB-231, 65.3 nM; with MCF7, 65.4 nM; in the test with A549, 33.4 nM.
The like results for `COc1ccc2c(c1)CCCN2c1nc(Cl)nc2ccc(Cl)cc12` were, in that order, 39.6 nM, 24.7 nM, 37.5 nM and 67 nM.
Turning to `COc1ccc2c(c1)CCCN2c1nc(NC2CC2)nc2ccc(F)cc12`, the IC50 in the test on SK-OV-3 [1] amounted to 1.5 nM; in the test with MDA-MB-231, 11.5 nM; with MCF7, 2.4 nM; in the test on A549, 7.5 nM.
As to `COc1ccc(Nc2nc(N3CCCc4cc(OC)ccc43)c3cc(F)ccc3n2)cc1`, the IC50 in the test on SK-OV-3 [1], in the test on MDA-MB-231, in the test with MCF7 and with A549 was over 1000 nM each time.
`CCCCNc1nc(N2CCCc3cc(OC)ccc32)c2cc(F)ccc2n1`: the IC50 in the test with SK-OV-3 [1] is 26 nM; in the test on MDA-MB-231 it was 61.1 nM; with MCF7 it was 47.1 nM; in the test on A549, 69.2 nM.
For `COc1ccc2c(c1)CCCN2c1nc(NCCOCCOCCO)nc2ccc(F)cc12`, the IC50 was 69.4 nM with SK-OV-3 [1], 136 nM in the test on MDA-MB-231, 192 nM in the test with MCF7 and 90.9 nM with A549.
Take `COc1ccc2c(c1)CCCN2c1nc(NC2CCCCC2)nc2ccc(F)cc12`: the IC50 in the test with SK-OV-3 [1], with MDA-MB-231, in the test on MCF7 and in the test on A549 was over 1000 nM throughout.
Take `COc1ccc2c(c1)CCCN2c1nc(N2CCCC2)nc2ccc(F)cc12`: the IC50 in the test on SK-OV-3 [1], with MDA-MB-231, with MCF7 and in the test on A549 was over 1000 nM each time.
Take `CCCNc1nc(N2CCCc3cc(OC)ccc32)c2cc(F)ccc2n1`: the IC50 with SK-OV-3 [1] was determined as 6.7 nM; in the test on MDA-MB-231, 25.6 nM; with MCF7, 11.8 nM; in the test on A549 it was 19.3 nM.
For the molecule `COCCCNc1nc(N2CCCc3cc(OC)ccc32)c2cc(F)ccc2n1`, the half-inhibitory concentration (IC50) in the test with SK-OV-3 [1] was found to be 18.9 nM; in the test on MDA-MB-231, 39.7 nM; with MCF7, 28 nM; in the test with A549, 33.1 nM.
The matching figures for `COc1ccc2c(c1)CCCN2c1nc(Cl)nc2ccc(C)cc12`: 38.1 nM, 37.1 nM, 45.7 nM and 29.7 nM.
The like results for `COc1ccc2c(c1)CCCN2c1nc(-c2cc(OC)c(OC)c(OC)c2)nc2ccc(F)cc12` were, in that order, over 1000 nM, over 1000 nM, over 1000 nM and over 1000 nM.
The matching figures for `COc1ccc2c(c1)CCCN2c1nc(NC(C)C)nc2ccc(F)cc12`: 22.3 nM, 25 nM, 15.1 nM and 45.7 nM.
As for `COc1cc2c(c(OC)c1OC)-c1ccc(OC)c(=O)cc1[C@@H](NC(C)=O)CC2` [COLCHICINE], the IC50 in the test with SK-OV-3 [1] worked out at 6.3 nM; in the test with MDA-MB-231 it was 12.1 nM; with A549 it was 31.4 nM.
For `COCCNc1nc(N2CCCc3cc(OC)ccc32)c2cc(F)ccc2n1`, the IC50 in the test on SK-OV-3 [1] was found to be 3.4 nM; in the test on MDA-MB-231, 15.8 nM; in the test with MCF7 it was 17.8 nM; with A549 it was 22.8 nM.
With `COc1ccc2c(c1)CCCN2c1nc(NCC(C)C)nc2ccc(F)cc12`, the IC50 was determined as 157 nM in the test on SK-OV-3 [1], 330 nM in the test on MDA-MB-231, 553 nM in the test with MCF7 and 440 nM in the test on A549.
For the molecule `COc1ccc2c(c1)CCCN2c1nc(NCCN(C)C)nc2ccc(F)cc12`, the half-maximal inhibitory concentration (IC50) in the test with SK-OV-3 [1], in the test with MDA-MB-231, in the test on MCF7 and in the test with A549 was over 1000 nM throughout.
With `COc1ccc2c(c1)CCCN2c1nc(N2CCOCC2)nc2ccc(F)cc12`, the IC50 in the test on SK-OV-3 [1] came out at 31.6 nM; in the test on MDA-MB-231 it was 57.5 nM; in the test with MCF7, 60.4 nM; with A549, 53.2 nM.
The like results for `CCNc1nc(N2CCCc3cc(OC)ccc32)c2cc(F)ccc2n1` were, in that order, 4.9 nM, 8.1 nM, 3.8 nM and 9.5 nM.
With `COc1ccc2c(c1)CCCN2c1nc(NC2CCC2)nc2ccc(F)cc12`, the IC50 came to 31.3 nM in the test with SK-OV-3 [1], 36.2 nM with MDA-MB-231, 23.8 nM in the test on MCF7 and 51.3 nM in the test with A549.
Turning to `COc1ccc2c(c1)CCCN2c1nc(Cl)nc2ccc(Br)cc12`, the IC50 in the test with SK-OV-3 [1] amounted to 63.1 nM; in the test on MDA-MB-231 it was 66.5 nM; with MCF7, 67.5 nM; with A549 it was 15.2 nM.
The matching figures for `COc1ccc2c(c1)CCCN2c1nc(Cl)nc2ccc(F)cc12`: 22.2 nM, 36.7 nM, 24.6 nM and 29.8 nM.
For the molecule `CCN(CC)c1nc(N2CCCc3cc(OC)ccc32)c2cc(F)ccc2n1`, the IC50 with SK-OV-3 [1] is 471 nM; in the test with MDA-MB-231 it was 900 nM; in the test on MCF7 it was 714 nM; in the test with A549 it was over 1000 nM.
For `COc1ccc2c(c1)CCCN2c1nc(NCc2ccccc2)nc2ccc(F)cc12`, the IC50 in the test on SK-OV-3 [1], with MDA-MB-231, in the test on MCF7 and in the test with A549 was over 1000 nM throughout.
Regarding `COc1ccc2c(c1)CCCN2c1nc(N(C)C)nc2ccc(F)cc12`, the half-maximal inhibitory concentration (IC50) in the test with SK-OV-3 [1] was determined as 44.5 nM; in the test with MDA-MB-231, 45.5 nM; in the test on MCF7, 35.3 nM; with A549, 64.4 nM.
The like results for `COc1ccc2c(c1)CCCN2c1nc(NC(C)(C)C)nc2ccc(F)cc12` were, in that order, over 1000 nM, over 1000 nM, over 1000 nM and over 1000 nM.
As for `CC(=O)O[C@H]1C(=O)[C@@]2(C)[C@H]([C@H](OC(=O)c3ccccc3)[C@]3(O)C[C@H](OC(=O)[C@H](O)[C@@H](NC(=O)c4ccccc4)c4ccccc4)C(C)=C1C3(C)C)[C@]1(OC(C)=O)CO[C@@H]1C[C@@H]2O` [PACLITAXEL], the values for the IC50 with SK-OV-3 [1], with MCF7 and in the test with A549 were 11.6 nM, 30.9 nM and 1.7 nM, respectively. In addition, on Tubulin (Homo sapiens) [2], the inhibition result is “Active”. For the same molecule, the inhibition entry at Tubulin (Homo sapiens) [3] is “Not active; Aggregated Into Bundle Like Filamentary Structure”. Also, in the test on SK-OV-3 [4], the inhibition in vivo at 10 mg/kg turned out to be 39.1%.
Consider `COc1ccc2c(c1)CCCN2c1nc(Cl)nc2ccc(C(F)(F)F)cc12`, for which the IC50 in the test with SK-OV-3 [1], in the test on MDA-MB-231, in the test on MCF7 and in the test with A549 was over 1000 nM each time.
Regarding `COc1ccc(-c2nc(N3CCCc4cc(OC)ccc43)c3cc(F)ccc3n2)cc1`, the 50% inhibitory concentration (IC50) in the test on SK-OV-3 [1], in the test on MDA-MB-231, in the test on MCF7 and in the test with A549 was over 1000 nM throughout.

The values are drawn from ChEMBL document CHEMBL6074686 (Eur J Med Chem, 2025).
